Values quoted from earlier work in patent publication US20080152704A1, “Dosage Forms of Palonosetron Hydrochloride Having Improved Stability and Bioavailability” (priority 2006, published 2008).

Key:
5-HT3 receptor = target: T1, 5-HT3 receptor (Homo sapiens, UniProt P46098)
T1 sequence (P46098 24-478): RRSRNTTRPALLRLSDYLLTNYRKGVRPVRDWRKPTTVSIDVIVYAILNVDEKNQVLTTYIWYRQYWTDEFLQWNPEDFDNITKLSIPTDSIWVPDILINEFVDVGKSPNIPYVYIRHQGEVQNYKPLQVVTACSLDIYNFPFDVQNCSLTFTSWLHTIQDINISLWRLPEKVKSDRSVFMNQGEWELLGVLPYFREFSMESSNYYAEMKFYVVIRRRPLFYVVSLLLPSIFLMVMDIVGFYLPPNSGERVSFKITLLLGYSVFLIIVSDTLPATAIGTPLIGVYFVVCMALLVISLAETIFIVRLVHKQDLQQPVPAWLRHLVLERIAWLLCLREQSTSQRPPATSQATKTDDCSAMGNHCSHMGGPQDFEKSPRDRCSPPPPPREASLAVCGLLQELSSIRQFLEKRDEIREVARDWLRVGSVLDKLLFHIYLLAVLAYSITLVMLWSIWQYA

affinity as an antagonist for the 5-HT3 receptor (5-HT3 receptor): high affinity
affinity for other receptors such as dopamine receptors (dopamine receptors): low affinity
SMILES: Cl.O=C1c2cccc3c2[C@H](CCC3)CN1[C@@H]1CN2CCC1CC2 [Palonosetron, (3aS)-2-[(S)-1-Azabicyclo [2.2.2]oct-3-yl]-2,3,3a,4,5,6-hexahydro-1-oxo-1Hbenz[de] isoquinoline hydrochloride]
